Test results as given in patent publication US20100286254A1 (ANTISOMA RESEARCH LIMITED, priority 2007, published 2010).
Counter-ions that a name gives are not always drawn. Each block holds one molecule with its values, some of them ahead of it.

Tests used:
[1] = test system: syngeneic murine tumours or human tumour xenografts; details: mouse, in vivo; cited from earlier work
human tumours = details: monotherapy, cited from earlier work
Hygroscopicity = assay type: physicochemical; details: sodium salt
[2] = Storage under controlled relative humidity (solid form stability); assay type: physicochemical
Text: A high relative humidity is here defined as a relative humidity of about 70 to 90%. […] In particular, the water content can be well controlled and remains constant, over time.

[3] = Dynamic Vapour Sorption (DVS) experiment; assay type: physicochemical; details: 25° C.
Description: DVS: Dynamic vapour sorption measurements were carried out with an instrument of Surface Measurement Systems (http:www.smsuk.co.uk). The weight change of the investigated sample is monitored while the relative humidity is changed over a range from 0% r.h. to 95% r.h. at a change rate of 5% per hour.
About 10 mg of a mixture of forms B and C is placed into a suitable sample pan and investigated with a dynamic vapour sorption apparatus of Surface Measurement Systems, DVS-1 (series 1000) using software version DVS win SP2, V3.01 at 25° C. The initial relative humidity is 50% and the initial mass is 100%, thereafter the humidity is increased to 95% and kept at this level for 2 hours, then the humidity is decreased to 0%, and kept at 0% during 10 hours, then raised again to 95%. Change rates are always 5% per hour.

[4] = 52% relative humidity, ambient temperature, about two weeks

Structure (SMILES): Cc1ccc2c(=O)c3cccc(CC(=O)O)c3oc2c1C [DMXAA]
- antivascular activity, tumour blood flow [1]: prolonged inhibition of tumour blood flow leading to extensive regions of haemorrhagic necrosis
- tumour responses (human tumours; phase I trials): few tumour responses were achieved
- tumour blood flow (human tumours; well-tolerated doses, dynamic MRI): significant reduction in tumour blood flow

Structure (SMILES): Cc1ccc2c(=O)c3cccc(CC(=O)O)c3oc2c1C [amorphous DMXAA sodium salt, DMXAA sodium salt, reference compound]
- hygroscopicity (Hygroscopicity): very hygroscopic

Structure (SMILES): Cc1ccc2c(=O)c3cccc(CC(=O)O)c3oc2c1C [form E, DMXAA sodium salt]
- hygroscopicity (Hygroscopicity): hygroscopic

Structure (SMILES): Cc1ccc2c(=O)c3cccc(CC(=O)O)c3oc2c1C [form F, DMXAA sodium salt]
- hygroscopicity (Hygroscopicity): hygroscopic
- change of the crystal form on storage [2, 4]: did not lead to a change of the crystal form
- water content after storage [2, 4]: about 3%
- form conversion on storage ([2]; 75% relative humidity at 40° C.): transforms into form B within a few days
- form conversion on storage ([2]; open container, 75% relative humidity, about 34 hours): transformed into form B

Now from value to molecule:

- hygroscopicity (Hygroscopicity): hygroscopic
Structure (SMILES): Cc1ccc2c(=O)c3cccc(CC(=O)O)c3oc2c1C [form L, DMXAA sodium salt]

- water adsorbed ([3]; at 95% r.h.): about 1%
- water release ([3]; scanning r.h. to 0%): all the water is released
Structure (SMILES): Cc1ccc2c(=O)c3cccc(CC(=O)[O-])c3oc2c1C.[Na+] [mixture of forms B and C, DMXAA sodium salt]
